“Also recorded” adds a separate entry of the source.
What was measured:
[1] = test system: BCL-2 promoter (BCL-2-GQ) in MCF-7 cells; experiment: Dual-luciferase assay, BCL-2 promoter with BCL-2-GQ; type: cell-based, human; conditions: MCF-7, 24 h, peptide 0–60 μM
Description: (§1) MCF-7 cells are sub-cultured into 24-well microtiter plates at a cell density of 1 × 10^5 cells/well. Reporter constructs (c-MYC, BCL-2, KRAS and VEGF-A) (500 ng) with and/or without the G-quadruplex scaffolds triggering the expression of Renilla luciferase are co-transfected with 50 ng of pGL3-control vectors (Promega) (used as internal control), encoding firefly luciferase into MCF-7 cells using Lipofectamine® 3000 transfection reagent (Thermo-Fisher Scientific) following manufacturer's recommendations (Supplementary information Section 1). Twenty four hours post-transfection, cells are treated with peptides (FK13, KR12A, KR12B, KR12C, KR12D and KR12E) at an increasing concentration gradient.
(§2) Dual-luciferase assays are performed to examine the intracellular selectivity of peptides for c-MYC quadruplex isomers (Pu27, Myc22 and Pu19) over other oncogenic quadruplexes (BCL-2, VEGF-A and KRAS) of different topologies. The role of peptide-quadruplex complex in oncogene promoter activation is investigated in contrast to the GQ-null promoter constructs into MCF-7 cells ([67]). After 24 h of peptide treatment, cells are washed and lysed into 100 μl 1× Passive lysis buffer (PLB) for 15 min at room temperature. Renilla and firefly Luciferase activities in 25 μl lysate are quantified by Dual-Luciferase® reporter assay system (Promega) as per manufacturer's recommendations. Renilla luciferase enzyme activity is normalized to that of the firefly luciferase activity and luminescence of the peptide-treated samples are normalized to the untreated ones, which yield the fold induction values for Renilla activities by different quadruplex structures in presence and absence of synthetic peptides. Luminescence of each sample is detected in GloMax® 20/20 Single-Tube Luminometer (Promega) in triplicates and averaged from three independent experiments.

[2] = test system: VEGF-A promoter (VEGF-A-GQ) in MCF-7 cells; experiment: Dual-luciferase assay, VEGF-A promoter with VEGF-A-GQ; type: cell-based, human; conditions: MCF-7, 24 h, peptide 0–60 μM
Description: as §1, §2

[3] = test system: c-MYC promoter with Myc22 isomer in MCF-7 cells; experiment: Dual-luciferase assay, c-MYC promoter under control of Myc22; type: cell-based, human; conditions: MCF-7, 24 h peptide treatment
Description: as §1, §2

[4] = test system: c-MYC promoter with Pu19 isomer in MCF-7 cells; experiment: Dual-luciferase assay, c-MYC promoter under control of Pu19; type: cell-based, human; conditions: MCF-7, 24 h peptide treatment
Description: as §1, §2

[5] = test system: c-MYC transcripts in MCF-7 cells; experiment: Real time PCR of c-MYC transcripts; type: cell-based, human; conditions: MCF-7, 24 h, qPCR normalised to GAPDH
Description: To inspect the transcription inhibitory roles of peptides in c-MYC, BCL-2, VEGF-A and KRAS oncogenes having putative quadruplexes in their promoters, we performed real time polymerase chain reactions. MCF-7 cells are sub-cultured into 6-well microtiter plates at a density of 1 × 10^6 cells per well and treated with different concentrations of peptides (FK13, KR12A, KR12B and KR12C) for 24 hours. Total RNA is isolated from both untreated and treated cells using TRIzol method (Invitrogen) as per manufacturer's instructions. 2 μg of total RNA is processed for cDNA synthesis and reverse transcribed using a Super MuLV RT Kit (Biobharati Life Sciences Pvt. Ltd.). Real time PCR is performed using Maxima SYBR Green/ROX qPCR Master Mix (2×) (Thermo-Scientific) as per manufacturer's protocol. Housekeeping gene, GAPDH is used as an internal control to normalize the variability in c-MYC mRNA expression levels (Supplementary information Section 1). PCR primers are designed using Primer-BLAST, NCBI, and analyzed in OligoAnalyser 3.1-IDT (Supplementary Table S2).

[6] = test system: RNAPII at c-MYC promoter in MCF-7 cells; experiment: ChIP, RNA polymerase II occupancy at c-MYC promoter; type: cell-based, human; conditions: MCF-7, 24 h, ChIP-qPCR versus IgG control
Description: Chromatin immunoprecipitation studies are conducted to monitor the promoter occupancies of different transcription factors (Sp1, NM23-H2 and Nucleolin) and RNA polymerase II (RNAPII) on the region encompassing c-MYC-NHE III1 ([69]). We have grown MCF-7 cells in 10-cm^2 culture flask at a density of 1 × 10^6 cells per well and treated with the synthetic peptides (FK13, KR12A, KR12B, and KR12C) for 24 hours. Cells are cross-linked with 1% formaldehyde at room temperature for 10 min and the reaction is stopped by 0.125 M glycine at room temperature for 10 min. Fixed cells are lysed and sonicated to yield DNA fragments of 200–500 bp. ChIP-grade antibodies (NM23-H2 (L-15) Antibody (sc-14790, Santa Cruz), and Anti-Nucleolin antibody [4E2]-ChIP Grade (Abcam)), Anti Sp1 antibody (Sigma), and Rpb1 (RNAPII subunit b1) CTD (C-terminal domain) 4H8 antibody are added to the sonicated chromatin and incubated overnight at 4°C. Then, 10 μl protein A magnetic beads (Dynal, Invitrogen), previously washed in RIPA buffer are added to the samples and bead–protein complexes are washed thrice with RIPA buffer and twice with TE buffer. The genomic DNA is eluted for 2 h at 68°C in complete elution Buffer (20 mM Tris, pH 7.5, 5 mM EDTA, 50 mM NaCl, 1% SDS and 50 μg/ml proteinase K) and further combined with the DNA eluted from second elution for 10 min at 68°C in 100 μl of elution buffer (20 mM Tris, pH 7.5, 5 mM EDTA and 50 mM NaCl). ChIP-isolated DNA is purified using MinElute Purification kit (Qiagen) and is amplified by PCR (Polymerase Chain Reaction) reactions using forward and reverse primers ([70]) (Supplementary Table S4) specific to the quadruplex-enriched regions at c-MYC promoter and Phusion® High-Fidelity PCR Kit (NEB). Anti-rabbit IgG is employed for mock immunoprecipitation (Negative control).

c-MYC quadruplex Pu27 = experiment: CD melting of free and peptide-bound Pu27; type: binding, human
Description: To understand the role of peptides (FK13, KR12A, KR12B, KR12C, KR12D and KR12E) in stabilizing native and truncated isomers of c-MYC G-quadruplex, we have performed temperature-driven CD melting experiments for free and peptide-bound complexes in JASCO-J815 CD spectrometer. We have gradually titrated the peptides into 10 μM of putative quadruplexes and acquired the spectra after 5 min of peptide addition to allow complex formation and equilibration. Samples are heated from 20 to 95°C having the temperature gradient and the delay time of 2.5°C/min and 150 s respectively. Since the quadruplexes unfold at higher temperatures and revert back to their initial conformations upon renaturation, we have assumed a ‘two-state transition’ model (folded and unfolded) to analyze the melting curves and estimated the melting temperatures (Tm) by fitting the data points into sigmoidal curves (Supplementary information Section 1).

[7] = 10 μM quadruplex, two-state model

| Substance | BCL-2 promoter activity [1] | VEGF-A promoter activity [2] | c-MYC promoter activation under control of Myc22 [3] | c-MYC promoter activation under control of Pu19 [4] | c-MYC transcription [5] | RNAPII occupancy at c-MYC promoter [6] | rise in the Tm of Pu27 upon peptide binding (c-MYC quadruplex Pu27; [7]) | c-MYC promoter attrition in presence of Myc22, fold [3] | c-MYC promoter attrition in presence of Pu19, fold [4] | c-MYC transcription, fold repression [5] | effect on thermal stability of Pu27 (c-MYC quadruplex Pu27) | decrease of the Tm of Pu27 upon peptide binding (c-MYC quadruplex Pu27; [7]) |
| --- | --- | --- | --- | --- | --- | --- | --- | --- | --- | --- | --- | --- |
| N – FKRIVQRIKDFLR – C [FK13] | significantly downregulate | significantly downregulate; also recorded: strongly inhibited | attenuated | attenuated | did not downregulate c-MYC transcription | did not significantly altered |  |  |  |  |  |  |
| N – KRIVKLIKKWLR – C [KR12C] | no significant impact | no significant impact |  |  |  | significantly depleted | 9 °C | ~5 fold | ~5 fold | ~5 fold |  |  |
| N – KRIVKRIKKWLR – C [KR12B, dodecameric mutant peptide derived from FK13 / LL37] | inverse regulation | strongly inhibited |  | weaker |  | significantly depleted |  |  |  | ~5 fold | did not significantly induce thermal stability |  |
| N – KRIVQRIKKWLR – C [KR12A, dodecameric mutant peptide derived from FK13 / LL37] | significantly downregulate | significantly downregulate | attenuated | attenuated | downregulated c-MYC transcription in a dose-dependent manner | depleted RNAPII occupancy |  |  |  |  |  | ~30 °C |

Reference: PMC6212778, “Site-specific amino acid substitution in dodecameric peptides determines the stability and unfolding of c-MYC quadruplex promoting apoptosis in cancer cells” (Nucleic Acids Research, 2018)
